Earlier results, collected in patent US9492541B2, “Phenylepherine containing dosage form” (SOVEREIGN PHARMACEUTICALS, LLC, priority 2004, dated 2016).

Settings: oral

period over which a single dose provides a therapeutically effective plasma concentration: 2.5 ± 0.7 h
SMILES: CNC[C@H](O)c1cccc(O)c1 [phenylepherine]
